Results from the supplement of paper PMC10307832.

Tests used:
Experiment in all cases: relative viability (nuclei count vs DMSO), 5 days (fraction); higher = more cells survive
NCI-H23 = tested on: NCI-H23
Procedure, shortened: (§1)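 A single step with final 0.05% Triton X-100, 1% formaldehyde and 1 ug/ml Hoechst fixed the cells and stained nuclei 5 days after treatment. Lung cancer cell lines in 1536-well plates had been treated by pin tool the day after seeding with one drug alone or a fixed anchor-drug dose plus five library-drug doses (not always all listed) in √10 steps, and nuclei were counted on 4× images. Relative viability is the ratio of nuclei in treated wells to nuclei in vehicle wells, taken as the median of duplicate plates.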

NCI-H1666 = tested on: NCI-H1666
Procedure, shortened: as §1

ChaGo-K-1 = tested on: ChaGo-K-1
Procedure, shortened: as §1

LOU-NH91 = tested on: LOU-NH91
Procedure, shortened: as §1

EMC-BAC-2 = tested on: EMC-BAC-2
Procedure, shortened: as §1

H3255 = tested on: H3255
Procedure, shortened: as §1

COR-L 105 = tested on: COR-L 105
Procedure, shortened: as §1

NCI-H1792 = tested on: NCI-H1792
Procedure, shortened: as §1

SK-MES-1 = tested on: SK-MES-1
Procedure, shortened: as §1

NCI-H441 = tested on: NCI-H441
Procedure, shortened: as §1

PC-3 [JPC-3] = tested on: PC-3 [JPC-3]
Procedure, shortened: as §1

NCI-H520 = tested on: NCI-H520
Procedure, shortened: as §1

LK-2 = tested on: LK-2
Procedure, shortened: as §1

EKVX = tested on: EKVX
Procedure, shortened: as §1

NCI-H1734 = tested on: NCI-H1734
Procedure, shortened: as §1

A-427 = tested on: A-427
Procedure, shortened: as §1

NCI-H1944 = tested on: NCI-H1944
Procedure, shortened: as §1

HCC-366 = tested on: HCC-366
Procedure, shortened: as §1

NCI-H1975 = tested on: NCI-H1975
Procedure, shortened: as §1

SW 900 = tested on: SW 900
Procedure, shortened: as §1

NCI-H1755 = tested on: NCI-H1755
Procedure, shortened: as §1

NCI-H2170 = tested on: NCI-H2170
Procedure, shortened: as §1

NCI-H596 = tested on: NCI-H596
Procedure, shortened: as §1

NCI-H1563 = tested on: NCI-H1563
Procedure, shortened: as §1

C[C@@H]1CN(CC(=O)Nc2ccc3c(c2)Cc2cccc(-c4cc(=O)cc(N5CCOCC5)o4)c2S3)C[C@H](C)O1 + N=C(N)NC(=N)NCCc1ccccc1 [Phenformin] (partner 250 µM)
relative viability (NCI-H23; first compound 0.04 µM): 0.719
relative viability (NCI-H23; first compound 0.1265 µM): 0.762
relative viability (NCI-H23; first compound 0.4 µM): 0.803
relative viability (NCI-H23; first compound 4 µM): 0.733
relative viability (NCI-H1666; first compound 0.04 µM): 0.57
relative viability (NCI-H1666; first compound 0.1265 µM): 0.553
relative viability (NCI-H1666; first compound 0.4 µM): 0.58
relative viability (NCI-H1666; first compound 4 µM): 0.554
relative viability (ChaGo-K-1; first compound 0.04 µM): 0.48
relative viability (ChaGo-K-1; first compound 0.1265 µM): 0.45
relative viability (ChaGo-K-1; first compound 0.4 µM): 0.474
relative viability (ChaGo-K-1; first compound 4 µM): 0.411
relative viability (LOU-NH91; first compound 0.04 µM): 0.792
relative viability (LOU-NH91; first compound 0.1265 µM): 0.691
relative viability (LOU-NH91; first compound 0.4 µM): 0.696
relative viability (LOU-NH91; first compound 4 µM): 0.667
relative viability (EMC-BAC-2; first compound 0.04 µM): 0.56
relative viability (EMC-BAC-2; first compound 0.1265 µM): 0.566
relative viability (EMC-BAC-2; first compound 0.4 µM): 0.495
relative viability (EMC-BAC-2; first compound 4 µM): 0.513
relative viability (H3255; first compound 0.04 µM): 0.388
relative viability (H3255; first compound 0.1265 µM): 0.364
relative viability (H3255; first compound 0.4 µM): 0.319
relative viability (H3255; first compound 4 µM): 0.367
relative viability (COR-L 105; first compound 0.04 µM): 0.503
relative viability (COR-L 105; first compound 0.1265 µM): 0.444
relative viability (COR-L 105; first compound 0.4 µM): 0.552
relative viability (COR-L 105; first compound 4 µM): 0.468
relative viability (NCI-H1792; first compound 0.04 µM): 0.35
relative viability (NCI-H1792; first compound 0.4 µM): 0.303
relative viability (NCI-H1792; first compound 4 µM): 0.526
relative viability (SK-MES-1; first compound 0.04 µM): 0.723
relative viability (SK-MES-1; first compound 0.1265 µM): 0.652
relative viability (SK-MES-1; first compound 0.4 µM): 0.665
relative viability (SK-MES-1; first compound 4 µM): 0.546
relative viability (NCI-H441; first compound 0.04 µM): 0.913
relative viability (NCI-H441; first compound 0.1265 µM): 0.897
relative viability (NCI-H441; first compound 0.4 µM): 0.682
relative viability (NCI-H441; first compound 4 µM): 0.722
relative viability (PC-3 [JPC-3]; first compound 0.04 µM): 0.494
relative viability (PC-3 [JPC-3]; first compound 0.1265 µM): 0.469
relative viability (PC-3 [JPC-3]; first compound 0.4 µM): 0.475
relative viability (PC-3 [JPC-3]; first compound 4 µM): 0.488
relative viability (NCI-H520; first compound 0.04 µM): 0.464
relative viability (NCI-H520; first compound 0.1265 µM): 0.732
relative viability (NCI-H520; first compound 0.4 µM): 0.312
relative viability (NCI-H520; first compound 4 µM): 0.452
relative viability (LK-2; first compound 0.1265 µM): 0.464
relative viability (LK-2; first compound 0.4 µM): 0.365
relative viability (LK-2; first compound 4 µM): 0.634
relative viability (EKVX; first compound 0.04 µM): 0.23
relative viability (EKVX; first compound 0.1265 µM): 0.25
relative viability (EKVX; first compound 0.4 µM): 0.234
relative viability (EKVX; first compound 4 µM): 0.221
relative viability (NCI-H1734; first compound 0.04 µM): 0.429
relative viability (NCI-H1734; first compound 0.1265 µM): 0.392
relative viability (NCI-H1734; first compound 0.4 µM): 0.366
relative viability (NCI-H1734; first compound 4 µM): 0.399
relative viability (A-427; first compound 0.04 µM): 0.298
relative viability (A-427; first compound 0.1265 µM): 0.35
relative viability (A-427; first compound 0.4 µM): 0.284
relative viability (A-427; first compound 4 µM): 0.285
relative viability (NCI-H1944; first compound 0.04 µM): 0.191
relative viability (NCI-H1944; first compound 0.1265 µM): 0.214
relative viability (NCI-H1944; first compound 0.4 µM): 0.23
relative viability (NCI-H1944; first compound 4 µM): 0.215
relative viability (HCC-366; first compound 0.04 µM): 0.659
relative viability (HCC-366; first compound 0.1265 µM): 0.656
relative viability (HCC-366; first compound 0.4 µM): 0.634
relative viability (HCC-366; first compound 4 µM): 0.681
relative viability (NCI-H1975; first compound 0.04 µM): 0.437
relative viability (NCI-H1975; first compound 0.1265 µM): 0.39
relative viability (NCI-H1975; first compound 0.4 µM): 0.393
relative viability (NCI-H1975; first compound 4 µM): 0.332
relative viability (SW 900; first compound 0.04 µM): 0.466
relative viability (SW 900; first compound 0.1265 µM): 0.724
relative viability (SW 900; first compound 0.4 µM): 0.669
relative viability (SW 900; first compound 4 µM): 0.488
relative viability (NCI-H1755; first compound 0.04 µM): 0.611
relative viability (NCI-H1755; first compound 0.1265 µM): 0.603
relative viability (NCI-H1755; first compound 0.4 µM): 0.698
relative viability (NCI-H1755; first compound 4 µM): 0.586
relative viability (NCI-H2170; first compound 0.04 µM): 0.406
relative viability (NCI-H2170; first compound 0.1265 µM): 0.43
relative viability (NCI-H2170; first compound 0.4 µM): 0.44
relative viability (NCI-H2170; first compound 4 µM): 0.412
relative viability (NCI-H596; first compound 0.04 µM): 0.792
relative viability (NCI-H596; first compound 0.1265 µM): 0.658
relative viability (NCI-H596; first compound 0.4 µM): 0.635
relative viability (NCI-H596; first compound 4 µM): 0.757
relative viability (NCI-H1563; first compound 0.04 µM): 0.692
relative viability (NCI-H1563; first compound 0.1265 µM): 0.636
relative viability (NCI-H1563; first compound 0.4 µM): 0.659
relative viability (NCI-H1563; first compound 4 µM): 0.677
